Molecular target: T1, hSFRP-1 (Homo sapiens, UniProt Q8N474)
T1 construct: expressed in transfected cells; host or cells: U2OS osteosarcoma cells (ATCC, HTB 96), transient co-transfection with Wnt 3, Wnt3A or Wnt 1, 16x TCF-tk-Luciferase reporter and CMV-beta-gal
T1 sequence (Q8N474 32-314): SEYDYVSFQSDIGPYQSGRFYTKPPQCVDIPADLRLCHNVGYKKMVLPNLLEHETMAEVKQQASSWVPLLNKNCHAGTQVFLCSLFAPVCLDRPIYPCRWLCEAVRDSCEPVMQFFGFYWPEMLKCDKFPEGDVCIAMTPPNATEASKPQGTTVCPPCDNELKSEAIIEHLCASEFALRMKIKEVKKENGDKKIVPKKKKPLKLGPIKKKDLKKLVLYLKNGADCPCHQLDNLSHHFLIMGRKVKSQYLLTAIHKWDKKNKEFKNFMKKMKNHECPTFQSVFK
Assay: Cell-Based Assay for In Vitro Measurement of SFRP-1/SARP2 Antagonist Activity (U2OS cells, 16x TCF-tk-Luciferase reporter, Wnt + hSFRP-1 co-transfection)
Conditions: initial single dose screening at 10 μM; for Ratio: ratio not defined
Description: Cell-Based Assay for In Vitro Measurement of SFRP-1/SARP2 Antagonist Activity
The following cell-based assay can be used to identify inhibitors of SFRP-1.
The osteosarcoma cell line, U2OS (ATCC, HTB 96), was passaged twice a week with growth medium (McCoy's SA medium containing 10% (v/v) fetal calf serum, 2 mM GlutaMAX-1, and 1% (v/v) Penicillin-Streptomycin). The cells were maintained in vented flasks at 37° C. inside a 5% CO2/95% humidified air incubator. One day prior to transfection, the cells were plated with growth medium at 25,000 cells/well into 96-well plates and incubated at 37° C. overnight.
The growth medium was removed, and the cells were washed once with OPTIMEM I (Gibco-BRL) medium (100 μl/well) to remove the serum and antibiotics. The wash medium was removed, and the cells were re-fed with OPTI-MEM I medium (100 μl/well). For each well of cells to be transfected, the following DNA's were diluted together in 25 μl OPTI-MEM I medium: 0.1 μg 16× TCF-tk-Luciferase reporter, 0.02 μg Wnt 3, Wnt3A, Wnt 1 or empty vector (Upstate Biotechnology), 0.075 μg hSFRP-1 or empty vector (pcDNA3.1, Invitrogen), and 0.025 μg CMV-®gal (Clonetech). For each well of cells to be transfected, 1 μl of Lipofectamine 2000 reagent (Invitrogen) was diluted in 25 μl OPTI-MEM I medium and incubated at room temperature for 5 minutes. The diluted DNA's were then combined with the diluted Lipofectamine 2000 (LF2000), and the mixture was incubated at room temperature for 20 minutes. Fifty μl of the DNA-LF 2000 mixture was added to each well, and the plate(s) were incubated at 37° C. in a 5% CO2/95% humidified air incubator for 4 hours. The cells were washed once with 150 μl/well of experimental medium (phenol red-free RPMI Medium 1640 containing 2% fetal bovine serum, 2 mM GlutaMAX-1, and 1% Penicillin-Streptomycin). Finally, the cells were treated overnight at 37° C. with 200 μl/well of experimental medium containing either vehicle (typically DMSO) or diluted compound in replicates of 8 wells/compound.
Initial single dose screening of test compounds was done at 10 μM.
Dose-response experiments were initially performed with the compounds in log increases from 1-10,000 nM. From these dose-response curves, EC50 values were generated.
After treatment, the cells were washed twice with 150 μl/well of PBS without calcium or magnesium and were lysed with 50 μl/well of 1× cell culture lysis reagent (Promega Corporation) on a shaker at room temperature for 30 minutes. Thirty μl aliquots of the cell lysates were transferred to 96-well luminometer plates, and luciferase activity was measured in a MicroLumat PLUS luminometer (EG&G Berthold), or a Victor (PerkinElmer Life Sciences) using […] of luciferase substrate (Promega Corporation). Following the injection of substrate, luciferase activity was measured for 10 seconds after a 1.6 second delay. Similarly, 10 μl aliquots of the cell lysates were transferred to separate 96-well luminometer plates, and 50 μl of Galacton chemiluminescent substrate (Tropix) was added to each well. The plates were covered and incubated on a rotary shaker at room temperature for one hour. ®gal activity was measured in a MicroLumat PLUS luminometer or Victor using 100 μl/well of Light Emission Accelerator (Tropix). Following the injection of the accelerator, ®gal activity was measured for 10 seconds after a 1.6 second delay. The luciferase and ®gal activity data were transferred from the luminometer to a PC and analyzed using the SAS/Excel program. After the luciferase activity was normalized to ®gal, the SAS/Excel program was used to determine the mean and standard deviation of each treatment, to analyze the data for statistical significance, and to determine EC50 values.
As an alternative to co-transfection in a 96 well plate, the U2OS cells were transfected in T225 flasks and the transfected cells were frozen. The frozen cells were thawed and plated on a 96 well plate and the assay was carried out as detailed above. […]

[1] = luciferase reporter activity, fold induction over SFRP-1 control

Structure (SMILES)	fold induction at 10 µM [1]	Ratio	Fold induction with SFRP-1 [1] [fold]
N=C1NC(=O)C(CC(=O)Nc2cccc([N+](=O)[O-])c2)S1 (stereo not drawn) [Example 29, 2-(2-imino-4-oxo-1,3-thiazolidin-5-yl)-N-(3-nitrophenyl)acetamide]	1.7	1.4	
CC(=O)c1cccc(NC(=O)CC2SC(=N)NC2=O)c1 (stereo not drawn) [Example 30, N-(3-acetylphenyl)-2-(2-imino-4-oxo-1,3-thiazolidin-5-yl)acetamide]	1.2	1.1	
N=C1NC(=O)C(CC(=O)Nc2cccc(OC(F)(F)F)c2)S1 (stereo not drawn) [Example 31, 2-(2-imino-4-oxo-1,3-thiazolidin-5-yl)-N-[3-(trifluoromethoxy)phenyl]acetamide]	1.7	1.5	
N=C1NC(=O)C(CC(=O)Nc2sc3c(c2C(N)=O)CCCC3)S1 (stereo not drawn) [Example 32, 2-{[(2-imino-4-oxo-1,3-thiazolidin-5-yl)acetyl]amino}-4,5,6,7-tetrahydro-1-benzothiophene-3-carboxamide]	1	1.1	
CCOC(=O)c1cc(CC)sc1NC(=O)CC1SC(=N)NC1=O (stereo not drawn) [Example 33, ethyl 5-ethyl-2-{[(2-imino-4-oxo-1,3-thiazolidin-5-yl)acetyl]amino}thiophene-3-carboxylate]	1.5	1.7	
COC(=O)c1ccsc1NC(=O)CC1SC(=N)NC1=O (stereo not drawn) [Example 34, methyl 2-{[(2-imino-4-oxo-1,3-thiazolidin-5-yl)acetyl]amino}thiophene-3-carboxylate]	1.2	1.3	
CCOC(=O)c1c(NC(=O)CC2SC(=N)NC2=O)sc2c1CCCC2 (stereo not drawn) [Example 35, ethyl 2-{[(2-imino-4-oxo-1,3-thiazolidin-5-yl)acetyl]amino}-4,5,6,7-tetrahydro-1-benzothiophene-3-carboxylate]	1.4	1.6	
CCOC(=O)c1c(NC(=O)CC2SC(=N)NC2=O)sc2c1CCCCC2 (stereo not drawn) [Example 36, ethyl 2-{[(2-imino-4-oxo-1,3-thiazolidin-5-yl)acetyl]amino}-5,6,7,8-tetrahydro-4H-cyclohepta[b]thiophene-3-carboxylate]	1.5	1.9	
COC(=O)c1c(NC(=O)CC2SC(=N)NC2=O)sc2c1CCC(OC)C2 (stereo not drawn) [Example 37, methyl 2-{[(2-imino-4-oxo-1,3-thiazolidin-5-yl)acetyl]amino}-6-methoxy-4,5,6,7-tetrahydro-1-benzothiophene-3-carboxylate]	1.5	1.7	
COC(=O)c1c(NC(=O)CC2SC(=N)NC2=O)sc2c1CCCC2 (stereo not drawn) [Example 38, methyl 2-{[(2-imino-4-oxo-1,3-thiazolidin-5-yl)acetyl]amino}-4,5,6,7-tetrahydro-1-benzothiophene-3-carboxylate]	1.3	1.4	
COC(=O)c1sc(C(C)(C)C)cc1NC(=O)CC1SC(=N)NC1=O (stereo not drawn) [Example 42, methyl 5-tert-butyl-3-{[(2-imino-4-oxo-1,3-thiazolidin-5-yl)acetyl]amino}thiophene-2-carboxylate]	1.5	1.7	
COC(=O)c1scc(C)c1NC(=O)CC1SC(=N)NC1=O (stereo not drawn) [Example 43, methyl 3-{[(2-imino-4-oxo-1,3-thiazolidin-5-yl)acetyl]amino}-4-methylthiophene-2-carboxylate]	1	1.0	
CCOC(=O)c1c(NC(=O)CC2SC(=N)NC2=O)sc2c1CCC2 (stereo not drawn) [Example 44, ethyl 2-{[(2-imino-4-oxo-1,3-thiazolidin-5-yl)acetyl]amino}-5,6-dihydro-4H-cyclopenta[b]thiophene-3-carboxylate]	1.6	1.5	
CCOC(=O)c1c(-c2ccccc2)csc1NC(=O)CC1SC(=N)NC1=O (stereo not drawn) [Example 45, ethyl 2-{[(2-imino-4-oxo-1,3-thiazolidin-5-yl)acetyl]amino}-4-phenyIthiophene-3-carboxylate]		1.0	1.1
CCOC(=O)c1c(-c2ccco2)csc1NC(=O)CC1SC(=N)NC1=O (stereo not drawn) [Example 46, ethyl 4-(2-furyl)-2-{[(2-imino-4-oxo-1,3-thiazolidin-5-yl)acetyl]amino}thiophene-3-carboxylate]	1.1	1.0	
CCOC(=O)c1c(-c2ccc(F)cc2)csc1NC(=O)CC1SC(=N)NC1=O (stereo not drawn) [Example 47, ethyl 4-(4-fluorophenyl)-2-{[(2-imino-4-oxo-1,3-thiazolidin-5-yl)acetyl]amino}thiophene-3-carboxylate]	1.1	1.0	
CCOC(=O)c1c(NC(=O)CC2SC(=N)NC2=O)sc(C)c1-c1ccccc1 (stereo not drawn) [Example 48, ethyl 2-{[(2-imino-4-oxo-1,3-thiazolidin-5-yl)acetyl]amino}-5-methyl-4-phenylthiophene-3-carboxylate]	1.6	1.8	
N#Cc1c(NC(=O)CC2SC(=N)NC2=O)sc2c1CCCC2 (stereo not drawn) [Example 49, N-(3-cyano-4,5,6,7-tetrahydro-1-benzothien-2-yl)-2-(2-imino-4-oxo-1,3-thiazolidin-5-yl)acetamide]	1.6	1.2	
COC(=O)c1ccccc1NC(=O)CC1SC(=N)NC1=O (stereo not drawn) [Example 50, methyl 2-{[(2-imino-4-oxo-1,3-thiazolidin-5-yl)acetyl]amino}benzoate]	1.1	1.0	
CCOC(=O)c1ccccc1NC(=O)CC1SC(=N)NC1=O (stereo not drawn) [Example 51, ethyl 2-{[(2-imino-4-oxo-1,3-thiazolidin-5-yl)acetyl]amino}benzoate]	1.1	1.1	
COC(=O)c1cc(Cl)ccc1NC(=O)CC1SC(=N)NC1=O (stereo not drawn) [Example 52, methyl 5-chloro-2-{[(2-imino-4-oxo-1,3-thiazolidin-5-yl)acetyl]amino}benzoate]	1.1	1.1	
COC(=O)c1cc(OC)c(OC)cc1NC(=O)CC1SC(=N)NC1=O (stereo not drawn) [Example 53, methyl 2-{[(2-imino-4-oxo-1,3-thiazolidin-5-yl)acetyl]amino}-4,5-dimethoxybenzoate]	1	1.0	
CCOC(=O)c1c(NC(=O)CC2SC(=N)NC2=O)sc(Br)c1C (stereo not drawn) [Example 54, Ethyl 5-bromo-2-{[(2-imino-4-oxo-1,3-thiazolidin-5-yl)acetyl]amino}-4-methylthiophene-3-carboxylate]	2.6	2.6	
CC(C)(C)OC(=O)c1cc(-c2ccccc2)sc1NC(=O)CC1SC(=N)NC1=O (stereo not drawn) [Example 55, tert-butyl 2-{[(2-imino-4-oxo-1,3-thiazolidin-5-yl)acetyl]amino}-5-phenylthiophene-3-carboxylate]	1.2	0.9	
